The values below are quoted from earlier work in PMC9729070 (Bioorganic & medicinal chemistry letters, 2022).

For data set [1] the following is noted: CRPC patients.
The conditions of data set [2]: Phase I clinical trials.

For the molecule `CNC(=O)c1ccc(N2C(=S)N(c3ccc(C#N)c(C(F)(F)F)c3)C(=O)C2(C)C)cc1F` [enzalutamide (Xtandi), enzalutamide], the survival time prolongation result in data set [1] is reported as “five”.

For `O=C(Nc1ccc([N+](=O)[O-])cc1Cl)c1cc(Cl)ccc1O` [Niclosamide (1), Niclosamide], the bioavailability entry in data set [2] was “unacceptable bioavailability”.
